Assay results published in patent US10961211B2, “Isotopically-stabilized tetronimide compounds” (Midwestern University, priority 2019, dated 2021).

Experiment: LCMS analysis of deuterium/hydrogen exchange in solution
Assay type: physicochemical
Conditions: NMR sample in dmso-d6, standing at room temperature
Experimental: A sample of rac-1 (440 mg, 1.07 mmol) was stirred in THF (10 mL) in the presence of K2CO3 (645 mg, 4.69 mmol; 4.4 eq.) and D2O (1.77 g, 88.5 mmol; 82.6 eq.) at room temperature. The reaction progress was monitored by LCMS and Mass analysis. After 9 days a sample was taken and concentrated under reduced pressure to give 96-100% pure (LCMS, UV 215 and 254 nm respectively) racemic 1-d3 (38.9 mg) according to ^1H-NMR analysis. […] Calcd. for C18H11D3F3NO5S M: 416.39

deuterium/hydrogen exchange (isotopic stability): deuterium loss took place in dmso-d6
SMILES: NC1=C(OS(=O)(=O)Cc2ccccc2)C(=O)C(c2ccc(C(F)(F)F)cc2)O1 (racemic) [Compound 1-d3, 2-amino-4-oxo-5-(4-(trifluoromethyl)phenyl)-4,5-dihydrofuran-3-yl phenylmethanesulfonate]
